Source: publication PMC9562281

Experiment: On-resin ring-closing metathesis (C=C) of bis-alkenyl beta-(1,6)-hexaglucosides, Grubbs catalyst 20 mol% per cycle, Ar bubbling. Method B (8a-8d): Grubbs II, MW 60 C, 40 min per cycle, 6 cycles for 8a and 3 for 8b-8d. Method A (8e-8g): Grubbs I, 25 C, 60 min per cycle, 3 cycles
Settings: the molecule shown is the open-chain precursor, 16 steps

C=CCO[C@@H]1[C@@H](OC(=O)c2ccccc2)[C@H](OC[C@H]2O[C@@H](OC[C@H]3O[C@@H](OC[C@H]4O[C@@H](OC[C@H]5O[C@@H](OC[C@H]6O[C@@H](OCCCCCN(Cc7ccc(OC)cc7[N+](=O)[O-])C(=O)OCc7ccccc7)[C@H](OC(=O)c7ccccc7)[C@@H](OC(=O)c7ccccc7)[C@@H]6OCc6ccccc6)[C@H](OC(=O)c6ccccc6)[C@@H](OCc6ccccc6)[C@@H]5OCC=C)[C@H](OC(=O)c5ccccc5)[C@@H](OC(=O)c5ccccc5)[C@@H]4OCc4ccccc4)[C@H](OC(=O)c4ccccc4)[C@@H](OC(=O)c4ccccc4)[C@@H]3OCc3ccccc3)[C@H](OC(=O)c3ccccc3)[C@@H](OC(=O)c3ccccc3)[C@@H]2OCc2ccccc2)O[C@H](CO)[C@H]1OCc1ccccc1 [8a (from 5a, -(CH2)4-)]
ring closure, overall yield (28-membered ring, 1,2-dichloroethane, 4.0 h): 12%

C=CCCCCO[C@H]1[C@H](OCc2ccccc2)[C@@H](OC(=O)c2ccccc2)[C@H](OC[C@H]2O[C@@H](OCCCCCN(Cc3ccc(OC)cc3[N+](=O)[O-])C(=O)OCc3ccccc3)[C@H](OC(=O)c3ccccc3)[C@@H](OC(=O)c3ccccc3)[C@@H]2OCc2ccccc2)O[C@@H]1CO[C@@H]1O[C@H](CO[C@@H]2O[C@H](CO[C@@H]3O[C@H](CO[C@@H]4O[C@H](CO)[C@@H](OCc5ccccc5)[C@H](OCCCC=C)[C@H]4OC(=O)c4ccccc4)[C@@H](OCc4ccccc4)[C@H](OC(=O)c4ccccc4)[C@H]3OC(=O)c3ccccc3)[C@@H](OCc3ccccc3)[C@H](OC(=O)c3ccccc3)[C@H]2OC(=O)c2ccccc2)[C@@H](OCc2ccccc2)[C@H](OC(=O)c2ccccc2)[C@H]1OC(=O)c1ccccc1 [8f (from 5f, -(CH2)9-)]
ring closure, overall yield (33-membered ring, 1,2-dichloroethane, 3.0 h): 14%

C=CCCCCO[C@@H]1[C@@H](OC(=O)c2ccccc2)[C@H](OC[C@H]2O[C@@H](OC[C@H]3O[C@@H](OC[C@H]4O[C@@H](OC[C@H]5O[C@@H](OC[C@H]6O[C@@H](OCCCCCN(Cc7ccc(OC)cc7[N+](=O)[O-])C(=O)OCc7ccccc7)[C@H](OC(=O)c7ccccc7)[C@@H](OC(=O)c7ccccc7)[C@@H]6OCc6ccccc6)[C@H](OC(=O)c6ccccc6)[C@@H](OCc6ccccc6)[C@@H]5OCC=C)[C@H](OC(=O)c5ccccc5)[C@@H](OC(=O)c5ccccc5)[C@@H]4OCc4ccccc4)[C@H](OC(=O)c4ccccc4)[C@@H](OC(=O)c4ccccc4)[C@@H]3OCc3ccccc3)[C@H](OC(=O)c3ccccc3)[C@@H](OC(=O)c3ccccc3)[C@@H]2OCc2ccccc2)O[C@H](CO)[C@H]1OCc1ccccc1 [8d (from 5d, -(CH2)7-)]
ring closure, overall yield (31-membered ring, 1,2-dichloroethane, 2.0 h): 13%

C=CCCCCO[C@H]1[C@H](OCc2ccccc2)[C@@H](OC(=O)c2ccccc2)[C@H](OC[C@H]2O[C@@H](OCCCCCN(Cc3ccc(OC)cc3[N+](=O)[O-])C(=O)OCc3ccccc3)[C@H](OC(=O)c3ccccc3)[C@@H](OC(=O)c3ccccc3)[C@@H]2OCc2ccccc2)O[C@@H]1CO[C@@H]1O[C@H](CO[C@@H]2O[C@H](CO[C@@H]3O[C@H](CO[C@@H]4O[C@H](CO)[C@@H](OCc5ccccc5)[C@H](OCCC=C)[C@H]4OC(=O)c4ccccc4)[C@@H](OCc4ccccc4)[C@H](OC(=O)c4ccccc4)[C@H]3OC(=O)c3ccccc3)[C@@H](OCc3ccccc3)[C@H](OC(=O)c3ccccc3)[C@H]2OC(=O)c2ccccc2)[C@@H](OCc2ccccc2)[C@H](OC(=O)c2ccccc2)[C@H]1OC(=O)c1ccccc1 [8e (from 5e, -(CH2)8-)]
ring closure, overall yield (32-membered ring, 1,2-dichloroethane, 3.0 h): 15%

C=CCCO[C@@H]1[C@@H](OC(=O)c2ccccc2)[C@H](OC[C@H]2O[C@@H](OC[C@H]3O[C@@H](OC[C@H]4O[C@@H](OC[C@H]5O[C@@H](OC[C@H]6O[C@@H](OCCCCCN(Cc7ccc(OC)cc7[N+](=O)[O-])C(=O)OCc7ccccc7)[C@H](OC(=O)c7ccccc7)[C@@H](OC(=O)c7ccccc7)[C@@H]6OCc6ccccc6)[C@H](OC(=O)c6ccccc6)[C@@H](OCc6ccccc6)[C@@H]5OCC=C)[C@H](OC(=O)c5ccccc5)[C@@H](OC(=O)c5ccccc5)[C@@H]4OCc4ccccc4)[C@H](OC(=O)c4ccccc4)[C@@H](OC(=O)c4ccccc4)[C@@H]3OCc3ccccc3)[C@H](OC(=O)c3ccccc3)[C@@H](OC(=O)c3ccccc3)[C@@H]2OCc2ccccc2)O[C@H](CO)[C@H]1OCc1ccccc1 [8b (from 5b, -(CH2)5-)]
ring closure, overall yield (29-membered ring, 1,2-dichloroethane, 2.0 h): 10%

C=CCCCCO[C@@H]1[C@@H](OC(=O)c2ccccc2)[C@H](OC[C@H]2O[C@@H](OC[C@H]3O[C@@H](OC[C@H]4O[C@@H](OC[C@H]5O[C@@H](OC[C@H]6O[C@@H](OCCCCCN(Cc7ccc(OC)cc7[N+](=O)[O-])C(=O)OCc7ccccc7)[C@H](OC(=O)c7ccccc7)[C@@H](OC(=O)c7ccccc7)[C@@H]6OCc6ccccc6)[C@H](OC(=O)c6ccccc6)[C@@H](OCc6ccccc6)[C@@H]5OCCCCC=C)[C@H](OC(=O)c5ccccc5)[C@@H](OC(=O)c5ccccc5)[C@@H]4OCc4ccccc4)[C@H](OC(=O)c4ccccc4)[C@@H](OC(=O)c4ccccc4)[C@@H]3OCc3ccccc3)[C@H](OC(=O)c3ccccc3)[C@@H](OC(=O)c3ccccc3)[C@@H]2OCc2ccccc2)O[C@H](CO)[C@H]1OCc1ccccc1 [8g (from 5g, -(CH2)10-)]
ring closure, overall yield (34-membered ring, 1,2-dichloroethane, 3.0 h): 17%

C=CCCCO[C@@H]1[C@@H](OC(=O)c2ccccc2)[C@H](OC[C@H]2O[C@@H](OC[C@H]3O[C@@H](OC[C@H]4O[C@@H](OC[C@H]5O[C@@H](OC[C@H]6O[C@@H](OCCCCCN(Cc7ccc(OC)cc7[N+](=O)[O-])C(=O)OCc7ccccc7)[C@H](OC(=O)c7ccccc7)[C@@H](OC(=O)c7ccccc7)[C@@H]6OCc6ccccc6)[C@H](OC(=O)c6ccccc6)[C@@H](OCc6ccccc6)[C@@H]5OCC=C)[C@H](OC(=O)c5ccccc5)[C@@H](OC(=O)c5ccccc5)[C@@H]4OCc4ccccc4)[C@H](OC(=O)c4ccccc4)[C@@H](OC(=O)c4ccccc4)[C@@H]3OCc3ccccc3)[C@H](OC(=O)c3ccccc3)[C@@H](OC(=O)c3ccccc3)[C@@H]2OCc2ccccc2)O[C@H](CO)[C@H]1OCc1ccccc1 [8c (from 5c, -(CH2)6-)]
ring closure, overall yield (30-membered ring, 1,2-dichloroethane, 2.0 h): 15%
